Laboratory results as given in patent US11376302B2, “Methods for treating depression and major depressive disorder” (priority 2017, dated 2022).
Entries after “also recorded” stand apart in the source; their conditions may differ.

Key:
[1] = tested on: global protein synthesis in the hippocampus; assay: SUnSET measurement of global protein synthesis in brain tissue after injection; assay type: in vivo, mouse
Procedure: Protein synthesis was measured by the SUnSET method. After pharmacological manipulation, mice were sacrificed by cervical dislocation, brains were removed, and the hippocampi were rapidly dissected, immersed in liquid nitrogen, and stored at −80° C. until further use. Hippocampi were homogenized using 20 strokes of a pre-chilled glass homogenizer with 600 μl of lysis buffer containing 50 mM Tris, pH 7.8, 240 mM KCl, 10 mM MgCl2, 250 mM D-sucrose, 2% Triton X-100, 20 μg/ml emetine, 5 mM DTT, 100 U/ml Rnasin (Promega), and protease inhibitor mixture without EDTA (Roche). Samples were centrifuged for 5 min at 16,100 g at 4° C. and supernatant was incubated with 100 g/ml puromycin for 10 min at 4° C. An equal volume of 2×SDS sample buffer (10% glycerol, 5% β-mercaptoethanol, 4% SDS, 120 mM Tris-HCl, pH 6.8) was added to the samples and then boiled for 10 min at 100° C. Protein concentrations were determined using the BCA protein assay (Thermo), and samples were stored at −20° C. until further use. Puromycin incorporation was detected by western blotting using 12D10 antibody for puromycin (1:1000, Millipore).

mice [2] = assay: Novelty suppressed feeding (NSF) test; assay type: in vivo, mouse; settings: C57BL/6 mice, ketamine injection
Procedure: Novelty Suppressed Feeding (NSF)
After receiving the treatments mice were subjected to NSF. Briefly, mice were food deprived for 14 h and then placed in a temporary home cage for 30 min. During the test, mice were placed in a square arena 50×50 cm with bright room light. A food pellet was placed in the center of an open field. Each trial was 10 min in duration. Animal behavior was recorded, and latency to feeding (s) was measured.

mice [3] = assay: Tail suspension test (TST); assay type: in vivo, mouse; settings: C57BL/6 mice, Tatcont then ketamine, test 24 hours later
Procedure: Custom made clear hollow cylinders (4 cm length, 1.2 cm inner diameter, 1 g) from polycarbonate tubing were placed around the tails of mice to prevent tail climbing behavior. Tape was adhered to the tails of mice on one end, and the other end of the tape was adhered to a custom designed chamber with a white background. Mice were video recorded for 6 minute and the entire 6 minute session was scored for immobility. Total immobility time (seconds) is shown in the results.

[4] = cited from earlier work
mice [5] = assay: Forced swim test (FST); assay type: in vivo, mouse
Procedure: After receiving treatments mice were subjected to FST. Briefly, mice were introduced into a transparent glass beaker (26 cm×18 cm) containing 4 liters deep water at 24° C. and were video-recorded for 6 minutes. The last 4 min were scored for immobility. Total immobility time (in seconds) is shown in the results.

Compound	protein synthesis ([1]; anisomycin 120 mg/kg b.w.)	ketamine-induced protein synthesis ([1]; anisomycin 120 mg/kg b.w. with ketamine)	latency to feeding in the novelty suppressed feeding test (mice [2])	immobility time in the TST (mice [3])	persistence of antidepressant effect ([4]; human patients, single intravenous administration)	reduction of depression in human patients ([4]; single intravenous administration)	side effects of infusions in humans ([4]; single or repeated infusions, lasting a few minutes to hours)	immobility time in the FST (mice [5]; C57BL/6 mice, Tatcont then ketamine, test 24 hours later)	immobility time in the forced swim test (mice [5]; C57BL/6 mice, ketamine IP (5 mg per kg b.w. in Example 1), short-term test)	immobility time in the FST (mice [5]; WT littermates, 30 minutes after ketamine)	immobility time in FST (mice [5]; WT mice, 24 hours after ketamine injection)	immobility time in the FST (mice [5]; eEF2K-KO mice, 30 minutes after ketamine)	immobility time in FST (mice [5]; eEF2K-KO mice, 24 hours after injection)	immobility time in FST (mice [5]; ketamine 5 mg/kg b.w., FST 24 hours later, C57BL/6 mice)	immobility time in FST (mice [5]; ketamine 10 mg/kg b.w., FST 24 hours later, C57BL/6 mice)
COc1ccc(C[C@H]2NC[C@H](O)[C@H]2OC(C)=O)cc1 [anisomycin]	blocked protein synthesis	blocked	–	–	–	–	–	–	–	–	–	–	–	–	–
CNC1(c2ccccc2Cl)CCCCC1=O (stereo not drawn) [ketamine]	–	–	reduced the latency to feeding	shorter immobility time	persists for many hours to days	sufficient to reduce depression	acute dissociative and psychotomimetic effects	shorter immobility time	reduced the immobility time; also recorded: shorter immobility time	reduced the immobility time	reduced immobility time	no difference in immobility	no difference	shorter immobility time	shorter immobility time
